Data as given in patent publication US20120022045A1, “BRIDGED COMPOUNDS AS HIV INTEGRASE INHIBITORS” (priority 2009, published 2012).
Where two headings read alike, the source gives them in different places.

Tests used:
[1] = system: HIV-1 integrase mutant virus G140S/Q148H; assay: Single cycle infectivity assay in HeLa P4-2 cells, integrase mutant G140S/Q148H virus; assay type: cell-based; conditions: fold shift in IC50 versus wild type IIIB
How it was run: (§1)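 HeLa P4-2 cells used in a single-cycle acute HIV-1 infection assay. Wild-type IIIB or integrase mutant viruses made by site-directed mutagenesis of proviral plasmids and produced by transfection of 293T cells.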

[2] = system: HIV-1 integrase mutant virus N155H; assay: Single cycle infectivity assay in HeLa P4-2 cells, integrase mutant N155H virus; assay type: cell-based; conditions: fold shift in IC50 versus wild type IIIB
How it was run: as §1

HIV-1 integrase = molecular target: T1, HIV-1 integrase (Human immunodeficiency virus type 1 group M subtype B, UniProt P04585); assay: HIV integrase assay: strand transfer catalyzed by recombinant integrase; assay type: biochemical; conditions: strand transfer activity
T1 construct: strand transfer activity of HIV-1 integrase
Protocol: Assays for the strand transfer activity of HIV-1 integrase were conducted in accordance with WO 02/30930 for recombinant integrase.
Further description on conducting the assay using preassembled complexes is found in Wolfe, A. L. et al., J. Virol. 1996, 70: 1424-1432, Hazuda et al., J. Virol. 1997, 71: 7005-7011; Hazuda et al., Drug Design and Discovery 1997, 15: 17-24; and Hazuda et al., Science 2000, 287: 646-650.

[3] = system: HIV-1 integrase mutant virus Y143R; assay: Single cycle infectivity assay in HeLa P4-2 cells, integrase mutant Y143R virus; assay type: cell-based; conditions: fold shift in IC50 versus wild type IIIB
How it was run: as §1

HIV-1 = assay: Inhibition of acute HIV-1 infection of T-lymphoid cells (spread assay); assay type: cell-based; conditions: 10% FBS, read-out: IC95 (nM) in the presence of 10% FBS
Protocol: Assays for the inhibition of acute HIV-1 infection of T-lymphoid cells were conducted in accordance with Vacca, J. P. et al., Proc. Natl. Acad. Sci. USA 1994, 91: 4096.

[4] = system: HIV-1 integrase mutant virus Q148R; assay: Single cycle infectivity assay in HeLa P4-2 cells, integrase mutant Q148R virus; assay type: cell-based; conditions: fold shift in IC50 versus wild type IIIB
How it was run: as §1

HIV-1 wild type IIIB = assay: Single cycle infectivity assay in HeLa P4-2 cells, wild type virus; assay type: cell-based
How it was run: as §1

[5] = Human immunodeficiency virus 1, T-lymphoid
[6] = Human immunodeficiency virus 1, IIIB, HeLaP4-2, wild type IIIB

Compound	G140S/Q148H (shift) [1] [fold]	N155H (shift) [2] [fold]	IC50 (HIV-1 integrase) [nM]	Y143R (shift) [3] [fold]	IC95 (HIV-1; [5]) [nM]	Q148R (shift) [4] [fold]	IC50 (HIV-1 wild type IIIB; [6]) [nM]	IC95 (HIV-1) [nM]	IC50 (HIV-1 wild type IIIB; wild type IIIB) [nM]
O=C(NC12CCC(CC1)Cn1c2nc(C(=O)NCc2ccc(F)cc2)c(O)c1=O)C(=O)N1CCOCC1 [Example 6, N-(4-Fluorobenzyl)-3-hydroxy-10-{[morpholin-4-yl(oxo)acetyl]amino}-4-oxo-4,6,7,8,9,10-hexahydro-7,10-ethanopyrimido[1,2-a]azepine-2-carboxamide]	5	2	37	1	5.3	2	9		
CN1CCN(C(=O)C(=O)N(C)C23CCC(CC2)Cn2c3nc(C(=O)NCc3ccc(F)cc3)c(O)c2=O)CC1 [Example 4]	4	4	14	1	39	3	33		
Cc1cc(CNC(=O)c2nc3n(c(=O)c2O)CC2CCC3(N(C)C(=O)C(=O)N(C)C)CC2)ccc1F [Example 2, N-(4-{[(4-fluoro-3-methylbenzyl)amino]carbonyl}-5-hydroxy-6-oxo-3,7-diazatricyclo[7.2.2.0^2,7]trideca-2,4-dien-1-yl)-N,N′,N″-trimethylethanediamide]	5	2	15	1	7.2	2	4		
CN(C)C(=O)C(=O)N(C)C12CCC(CC1)Cn1c2nc(C(=O)NCc2ccc(F)cc2)c(O)c1=O [Example 1, N-(4-{[(4-fluorobenzyl)amino]carbonyl}-5-hydroxy-6-oxo-3,7-diazatricyclo[7.2.2.0^2,7]trideca-2,4-dien-1-yl)-N′,N′,N″-trimethylethanediamide]	15	3	13	2	6.2	2	7.2		
CN(C(=O)C(=O)N1CCOCC1)C12CCC(CC1)Cn1c2nc(C(=O)NCc2ccc(F)cc2)c(O)c1=O [Example 3, N-(4-fluorobenzyl)-5-hydroxy-1-{methyl[morpholin-4-yl(oxo)acetyl]amino}-6-oxo-3,7-diazatricyclo[7.2.2.0^2,7]trideca-2,4-diene-4-carboxamide]	9	2	32	1	11	2	31		
N-5-{[(4-fluorolbenzyl)amino]carbonyl}-4-hydroxy-3-oxo-2,6-diazatricyclo[6.3.2.0^2,7]trideca-4,6-dien-8-yl)-N,N′,N′-trimethylethanediamide [Example 24B]	6	3	24	2		1		7.4	7
Cc1cc(CNC(=O)c2nc3n(c(=O)c2O)CC2CCC3(N(C)C(=O)C(=O)N(C)C)CO2)ccc1F (single isomer, unassigned) [Example 11B]	14	5	14	1		2		7.8	112
CC1C2CCC(N(C)C(=O)C(=O)N(C)C)(CC2)c2nc(C(=O)NCc3ccc(F)cc3)c(O)c(=O)n21 (single isomer, unassigned) [Example 13B, N-(4-{[(4-fluorobenzyl)amino]carbonyl}-5-hydroxy-8-methyl-6-oxo-3,7-diazatricyclo[7.2.2.0^2,7]trideca-2,4-dien-1-yl)-N′,N′,N″-trimethylethanediamide]	>209	30	13	7		57		20	8
CCN(C(=O)C(=O)N(C)C)C12CCC(Cn3c1nc(C(=O)NCc1ccc(F)cc1)c(O)c3=O)OC2 (single isomer, unassigned) [Example 12A, N-Ethyl-N-(4-{[(4-fluorobenzyl)amino]carbonyl}-5-hydroxy-6-oxo-10-oxa-3,7-diazatricyclo[7.2.2.0^2,7]trideca-2,4-dien-1-yl)-N′,N′-dimethylethanediamide]	112	6	11	2	11	7			23
CN(C)C(=O)C(=O)N(C)C12CCC(Cn3c1nc(C(=O)NCc1ccc(F)cc1)c(O)c3=O)OC2 (single isomer, unassigned) [Example 10A, N-(4-{[(4-fluorobenzyl)amino]carbonyl}-5-hydroxy-6-oxo-10-oxa-3,7-diazatricyclo[7.2.2.0^2,7]trideca-2,4-dien-1-yl)-N′,N′N′-trimethylethanediamide]	26	5	5	1		4		9.0	221
CN(C)C(=O)C(=O)N(C)C12CCC(Cn3c1nc(C(=O)NCc1ccc(F)cc1)c(O)c3=O)C2 (stereo not shown) [Example 8]	110	16		13	9.2	18	13		
CN(C)C(=O)C(=O)N(C)C12CCC(Cn3c1nc(C(=O)NCc1ccc(F)cc1)c(O)c3=O)OC2 (single isomer, unassigned) [Example 23A]	84	7		1		6		16.7	21
CC1C2CCC(N(C)C(=O)C(=O)N(C)C)(CO2)c2nc(C(=O)NCc3ccc(F)cc3)c(O)c(=O)n21 (single isomer, unassigned) [Example 27A, N-(4-{[(4-fluorobenzyl)amino]carbonyl}-5-hydroxy-8-methyl-6-oxo-10-oxa-3,7-diazatricyclo[7.2.2.0^2,7]trideca-2,4-dien-1-yl)-N,N′,N′-trimethylethanediamide]	2	1		1		1		7.5	20
CCN(C(=O)C(=O)N(C)C)C12CCC(Cn3c1nc(C(=O)NCc1ccc(F)c(C)c1)c(O)c3=O)OC2 (stereo not shown) [Example 18A, N-ethyl-N-(4-{[(4-fluoro-3-methylbenzyl)amino]carbonyl}-5-hydroxy-6-oxo-10-oxa-3,7-diazatricyclo[7.2.2.0^2,7]trideca-2,4-dien-1-yl)-N,N-dimethylethanediamide]	>88	8		2	9.8	7	19		
CC1C2CCC(NC(=O)C(=O)N(C)C)(CO2)c2nc(C(=O)NCc3ccc(F)cc3)c(O)c(=O)n21 (single isomer, unassigned) [Example 29D, N′-(4-{[(4-Fluorobenzyl)amino]carbonyl}-5-hydroxy-8-methyl-6-oxo-10-oxa-3,7-diazatricyclo[7.2.2.0^2,7]trideca-2,4-dien-1-yl)-N-dimethylethanediamide]	2	2		1		1		21.6	21
